Target: T1, sGC α1/β1 heterodimer (Homo sapiens, UniProt Q02108+Q02153)
T1 construct: expressed in transfected cells
T1 sequence (Q02108 1-690): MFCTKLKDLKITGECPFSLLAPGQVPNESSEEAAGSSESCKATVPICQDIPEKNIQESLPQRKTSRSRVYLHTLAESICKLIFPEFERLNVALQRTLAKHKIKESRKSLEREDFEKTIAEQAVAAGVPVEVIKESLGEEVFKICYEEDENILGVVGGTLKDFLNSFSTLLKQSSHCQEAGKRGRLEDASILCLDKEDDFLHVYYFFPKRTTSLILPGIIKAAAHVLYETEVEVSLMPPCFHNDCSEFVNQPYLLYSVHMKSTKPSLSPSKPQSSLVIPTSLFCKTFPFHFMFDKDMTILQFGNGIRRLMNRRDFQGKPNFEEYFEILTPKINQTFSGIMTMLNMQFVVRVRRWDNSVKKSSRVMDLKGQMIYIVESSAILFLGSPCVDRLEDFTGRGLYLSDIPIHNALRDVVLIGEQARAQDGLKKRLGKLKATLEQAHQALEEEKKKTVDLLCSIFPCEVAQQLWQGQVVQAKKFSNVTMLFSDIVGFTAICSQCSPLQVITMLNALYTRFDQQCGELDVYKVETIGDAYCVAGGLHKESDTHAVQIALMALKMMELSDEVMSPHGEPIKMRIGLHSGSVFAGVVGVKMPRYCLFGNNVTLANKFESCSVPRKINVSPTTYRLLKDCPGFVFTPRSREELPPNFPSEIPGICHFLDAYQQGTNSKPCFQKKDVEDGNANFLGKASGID
T1 sequence (Q02153 1-619): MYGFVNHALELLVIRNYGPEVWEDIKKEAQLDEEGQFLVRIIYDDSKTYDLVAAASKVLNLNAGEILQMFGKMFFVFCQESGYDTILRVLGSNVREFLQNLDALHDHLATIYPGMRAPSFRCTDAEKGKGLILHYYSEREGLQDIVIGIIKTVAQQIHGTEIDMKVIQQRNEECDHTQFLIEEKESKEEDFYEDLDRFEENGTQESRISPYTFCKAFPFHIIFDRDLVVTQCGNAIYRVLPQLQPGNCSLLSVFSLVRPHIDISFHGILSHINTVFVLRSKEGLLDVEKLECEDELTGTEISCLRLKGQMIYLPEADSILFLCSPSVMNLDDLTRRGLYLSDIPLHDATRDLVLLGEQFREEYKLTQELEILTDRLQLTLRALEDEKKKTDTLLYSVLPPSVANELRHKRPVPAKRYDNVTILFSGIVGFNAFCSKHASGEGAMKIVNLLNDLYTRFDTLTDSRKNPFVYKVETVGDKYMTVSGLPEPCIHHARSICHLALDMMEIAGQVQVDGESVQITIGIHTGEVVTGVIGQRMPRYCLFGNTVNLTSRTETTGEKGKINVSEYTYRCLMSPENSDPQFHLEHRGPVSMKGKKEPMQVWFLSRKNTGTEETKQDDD
Experiment: Cell-Based sGC Functional Assay (CASA Assay)
Settings: CHO-K1/sGC cells; for EC50: intracellular cGMP by HTRF, 1 hr at 37° C., IP from 4P fit, presence or absence of 1 μM DETA-NO not given; for Emax: cGMP as percentage of maximum cGMP production of Compound A (=100% activation), read-out: % ACT (percent activation)
Excerpt: Biological Assays: Cell-Based sGC Functional Assay (CASA Assay)
sGC is a heme-containing enzyme that converts GTP to secondary messenger cGMP. Increases in cGMP levels affect several physiological processes including vasorelaxation through multiple downstream pathways. […] Heme-dependent activators (HDAs) preferentially activate sGC containing a ferrous heme group. To determine the effect of sGC activators on enzyme activity, the CASA assay was developed to monitor the generation of cGMP in a cell line that stably expresses the heterodimeric sGC protein.
A CHO-K1 cell line stably expressing the sGC α1/β1 heterodimer was generated using a standard transfection protocol. CHO-K1 cells were transfected with plasmids pIREShyghsGCα1 and pIRESneo-hsGCβ1 simultaneously using FUGENE reagent. Clones that stably express both subunits were selected with hygromycin and neomycin for ˜2 weeks. Clone #7 was chosen for the assay and was designated CHO-K1/sGC. CHO-K1/sGC cells were maintained in F-K12 medium containing 10% heat-inactivated Fetal Bovine Serum (FBS), 100 μg/mL penicillin/streptomycin, 0.5 mg/mL hygromycin and 0.25 mg/mL G418. The cells were then cryopreserved in LN2. On the day of the assay, cells were thawed and resuspended in EBSS Assay Buffer (EAB, Sigma, E3024) supplemented with 5 mM MgCl2, 10 mM HEPES (4-(2-hydroxyethyl)piperazine-1-ethanesulfonic acid) and 0.05% BSA (bovine serum albumin) and cell density was then adjusted to 4×10^5/mL with EAB. IBMX (3-isobutyl-1-methylxanthin, 0.5 mM) was added to inhibit degradation of cGMP. Compounds were diluted from DMSO stock solutions and added to the assay at a final DMSO concentration of 2.5%. Cells were incubated with compounds in the presence and absence of 1 μM of Diethylenetriamine/nitric oxide adduct (DETA-NO; Sigma, 17018) for 1 hr at 37° C. At the end of the incubation period, the reaction was terminated and the cells were lysed with the detection reagents from Cisbio Kits. The level of intracellular cGMP was determined using an HTRF-based assay kit (CisBio, 62GM2PEC), which detects the displacement of a fluorescence labeled cGMP from its specific antibody. The cGMP produced by test compounds was directly compared to the maximum cGMP production (this value was set to equal 100% activation) of the published sGC-HDA Compound A:
[drawing 123] (Example 1 in WO 2010/065275, published Jun. 10, 2010). The test compounds' activity was then expressed as a percentage of Compound A, the standard in every experiment. This percent activation was calculated either in the presence or absence of DETA-NO which was then plotted. IP and maximum fold induction was derived using ADA analysis software for 4P fit.

| SMILES | EC50 | Emax |
| --- | --- | --- |
| COc1ccc(C2(C)C(=O)Nc3nc(-c4nc(CCCC(F)(F)F)nc5c4cnn5C)nc(N)c32)cc1F (single isomer, unassigned) [Example 15, 4-Amino-5-(3-fluoro-4-methoxyphenyl)-5-methyl-2-(1-methyl-6-(4,4,4-trifluorobutyl)-1H-pyrazolo[3,4-d]pyrimidin-4-yl)-5H-pyrrolo[2,3-d]pyrimidin-6(7H)-one] | 52 nM | 113% |
| Cn1ncc2c(-c3nc(N)c4c(n3)NC(=O)C4(C)c3ccccc3)nc(CCCC(F)(F)F)nc21 (single isomer, unassigned) [Example 3, 4-Amino-5-methyl-2-(1-methyl-6-(4,4,4-trifluorobutyl)-1H-pyrazolo[3,4-d]pyrimidin-4-yl)-5-phenyl-5H-pyrrolo[2,3-d]pyrimidin-6(7H)-one] | 119 nM | 132% |
| [2H]C([2H])([2H])n1ncc2c(-c3nc(N)c4c(n3)NC(=O)C4(C(=O)Nc3ccccn3)C3CC3)nc(CCC(F)(F)C(F)(F)F)nc21 (single isomer, unassigned) [Example 41, 4-Amino-5-cyclopropyl-2-(6-(3,3,4,4,4-pentafluorobutyl)-1-trideuteriomethyl-1H-pyrazolo[3,4-d]pyrimidin-4-yl)-6-oxo-N-(pyridin-2-yl)-6,7-dihydro-5H-pyrrolo[2,3-d]pyrimidine-5-carboxamide] | 77 nM | 100% |
| [2H]C([2H])([2H])n1ncc2c(-c3nc(N)c4c(n3)NC(=O)C4(C)C#C)nc(CCC(F)(F)C(F)(F)F)nc21 (single isomer, unassigned) [Example 22, 4-Amino-5-ethynyl-5-methyl-2-(6-(3,3,4,4,4-pentafluorobutyl)-1-trideuteriomethyl-1H-pyrazolo[3,4-d]pyrimidin-4-yl)-5H-pyrrolo[2,3-d]pyrimidin-6(7H)-one] | 46 nM | 128% |
| [2H]C([2H])([2H])n1ncc2c(-c3nc(N)c4c(n3)NC(=O)C4(C)c3ccccc3)nc(CCC(F)(F)C(F)(F)F)nc21 (single isomer, unassigned) [Example 13, 4-Amino-5-methyl-2-(6-(3,3,4,4,4-pentafluorobutyl)-1-trideuteriomethyl-1H-pyrazolo[3,4-d]pyrimidin-4-yl)-5-phenyl-5H-pyrrolo[2,3-d]pyrimidin-6(7H)-one] | 40 nM | 101% |
| CCOC(=O)C1(C2CC2)C(=O)Nc2nc(-c3nc(CCCC(F)(F)F)nc4c3cnn4C)nc(N)c21 (single isomer, unassigned) [Example 27, Ethyl 4-amino-5-cyclopropyl-2-(1-methyl-6-(4,4,4-trifluorobutyl)-1H-pyrazolo[3,4-d]pyrimidin-4-yl)-6-oxo-6,7-dihydro-5H-pyrrolo[2,3-d]pyrimidine-5-carboxylate] | 602 nM | 98% |
| [2H]C([2H])([2H])n1ncc2c(-c3nc(N)c4c(n3)NC(=O)C4(CC)C(N)=O)nc(CCC(F)(F)C(F)(F)F)nc21 (single isomer, unassigned) [Example 36, 4-Amino-5-ethyl-2-(6-(3,3,4,4,4-pentafluorobutyl)-1-trideuteriomethyl-1H-pyrazolo[3,4-d]pyrimidin-4-yl)-6-oxo-6,7-dihydro-5H-pyrrolo[2,3-d]pyrimidine-5-carboxamide] | 878 nM | 121% |

Further lines, results first:

| EC50 | Emax | SMILES |
| --- | --- | --- |
| 286 nM | 104% | [2H]C([2H])([2H])n1ncc2c(-c3nc(N)c4c(n3)NC(=O)C4(C)C3CC3)nc(CCC(F)(F)C(F)(F)F)nc21 (single isomer, unassigned) [Example 17, 4-Amino-5-cyclopropyl-5-methyl-2-(6-(3,3,4,4,4-pentafluorobutyl)-1-trideuteriomethyl-1H-pyrazolo[3,4-d]pyrimidin-4-yl)-5H-pyrrolo[2,3-d]pyrimidin-6(7H)-one] |
| 44 nM | 104% | COC1(C)C(=O)Nc2nc(-c3nc(CCC(F)(F)C(F)(F)F)nc4c3cnn4C)nc(N)c21 (single isomer, unassigned) [Example 56, 4-Amino-5-methoxy-5-methyl-2-(1-methyl-6-(3,3,4,4,4-pentafluorobutyl)-1H-pyrazolo[3,4-d]pyrimidin-4-yl)-5H-pyrrolo[2,3-d]pyrimidin-6(7H)-one] |
| 49 nM | 106% | C#CC1(CC)C(=O)Nc2nc(-c3nc(CCC(F)(F)C(F)(F)F)nc4c3cnn4C)nc(N)c21 (single isomer, unassigned) [Example 23, 4-Amino-5-ethyl-5-ethynyl-2-(1-methyl-6-(3,3,4,4,4-pentafluorobutyl)-1H-pyrazolo[3,4-d]pyrimidin-4-yl)-5H-pyrrolo[2,3-d]pyrimidin-6(7H)-one] |
| 1240 nM | 101% | Cn1ncc2c(-c3nc(N)c4c(n3)NC(=O)C4(C)N)nc(CCC(F)(F)C(F)(F)F)nc21 (single isomer, unassigned) [Example 50, 4,5-Diamino-5-methyl-2-(1-methyl-6-(3,3,4,4,4-pentafluorobutyl)-1H-pyrazolo[3,4-d]pyrimidin-4-yl)-5H-pyrrolo[2,3-d]pyrimidin-6(7H)-one] |
| 53 nM | 112% | Cn1ncc2c(-c3nc(N)c4c(n3)NC(=O)C4(C(=O)NC3CC3)C3CC3)nc(CCC(F)(F)C(F)(F)F)nc21 (single isomer, unassigned) [Example 33, 4-Amino-N,5-dicyclopropyl-2-(1-methyl-6-(3,3,4,4,4-pentafluorobutyl)-1H-pyrazolo[3,4-d]pyrimidin-4-yl)-6-oxo-6,7-dihydro-5H-pyrrolo[2,3-d]pyrimidine-5-carboxamide] |
| 119 nM | 118% | CC(C)NC1(C)C(=O)Nc2nc(-c3nc(CCC(F)(F)C(F)(F)F)nc4c3cnn4C)nc(N)c21 (stereo not shown) [Example 55, 4-Amino-5-(isopropylamino)-5-methyl-2-(1-methyl-6-(3,3,4,4,4-pentafluorobutyl)-1H-pyrazolo[3,4-d]pyrimidin-4-yl)-5H-pyrrolo[2,3-d]pyrimidin-6(7H)-one] |
| 171 nM | 122% | Cn1ncc2c(-c3nc(N)c4c(n3)NC(=O)C4(C)C3CCCCC3)nc(CCC(F)(F)C(F)(F)F)nc21 (single isomer, unassigned) [Example 18, 4-Amino-5-cyclohexyl-5-methyl-2-(1-methyl-6-(3,3,4,4,4-pentafluorobutyl)-1H-pyrazolo[3,4-d]pyrimidin-4-yl)-5H-pyrrolo[2,3-d]pyrimidin-6(7H)-one] |

Reference: patent US9783552B2, “Soluble guanylate cyclase activators” (MERCK SHARP & DOHME CORP., priority 2013, dated 2017)
